Measurements published in article PMC12501029, “Discovery of a CNS active GSK3 degrader using orthogonally reactive linker screening” (Nature Communications, 2025).

Biological target: T1, mouse GSK3β (Mus musculus, UniProt Q9WV60)
T1 construct: Immunoblotting based endogenous degradation profile of KH1 (24) in mouse embryonic fibroblast (MEF) cells; host or cells: MEF cells
Test: Immunoblot degradation in mouse embryonic fibroblast (MEF) cells, 4 h
Format: cell-based
Protocol: HEK293, HAP1, HAP1 CRBN KO and SH-SY5Y cells were plated in either 6 cm plates or 6-well plates at varying densities (0.5–0.7 × 10^6 cells per plate or wells), and MEF cells were plated in 10 cm plates (1–1.2 × 10^6 cells per plate) depending on experimental set up in respective culturing condition as described above. Stock solutions of compounds were prepared as 10 mM in DMSO (Sigma–Aldrich). Working dilutions were made up fresh in DMSO and culturing media or differentiation media was refreshed prior to any compound treatments. For mode of action studies, cells were pre-treated with inhibitors for 2 h: 1 µM MG132 (Merck, 474790-5 mg), 1 µM MLN4924 (Merck, 5054770001) or 1 µM GSK3 inhibitor (compound 29), before treating with PROTACs for 2, 4 or 24 h as indicated in figure legends. Cells were washed twice with ice-cold PBS (Gibco), harvested in PBS and pelleted, cells were resuspended in RIPA buffer supplemented with complete EDTA-free protease inhibitor cocktail (Roche,11873580001, 1/10 mL) and phosSTOP (Roche, 04906845001, 1 tablet/10 mL) for 20 min lysis on ice then cleared via centrifugation at 16,000 × g, 4 °C for 20 min. […] Following clearance of lysates, protein concentrations were determined by the BCA assay (Fisher Scientific, 23225) or Bradford assay (Bio-rad). […]

T1 sequence (Q9WV60 whole entry): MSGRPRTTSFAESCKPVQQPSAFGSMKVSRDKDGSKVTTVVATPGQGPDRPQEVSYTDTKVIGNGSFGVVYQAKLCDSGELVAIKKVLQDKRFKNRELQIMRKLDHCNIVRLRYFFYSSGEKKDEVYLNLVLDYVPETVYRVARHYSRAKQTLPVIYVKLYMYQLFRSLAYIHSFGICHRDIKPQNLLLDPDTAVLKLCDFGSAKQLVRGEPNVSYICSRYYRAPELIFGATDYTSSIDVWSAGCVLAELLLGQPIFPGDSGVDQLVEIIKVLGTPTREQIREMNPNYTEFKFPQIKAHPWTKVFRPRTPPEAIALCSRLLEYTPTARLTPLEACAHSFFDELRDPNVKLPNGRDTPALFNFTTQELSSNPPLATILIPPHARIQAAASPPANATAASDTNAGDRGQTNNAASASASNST

In the case of `Cn1nc(N2CCC(=O)NC2=O)c2ccc(CN3CCN(Cc4ccc(-c5cn(-c6ccc(-c7cn8nccc(C(=O)Nc9cnccc9N9CCOCC9)c8n7)cc6)nn5)nc4)CC3)cc21` [compound 24], the DC50 is reported as 0.1 to 1 nM.
